Measurements reported in patent publication US5376676A (Allergan, Inc., priority 1991, dated 1994).

Assays:
[1] = molecular target: phosphoinositide-specific phospholipase C; assay: Inhibition of phosphoinositide-specific phospholipase C assay (PLC); type: biochemical
Description: Inhibition of Phosphoinositide-specific Phospholipase C
The effect of compounds of this invention on phosphoinositide-specific phospholipase-C may be determined by procedures described by Bennett et al, Molecular Pharmacology 32:587-593 (1987).

[2] = test system: Ca2+ channel mobilization (KCl induced); assay: Calcium channel (mobilization) inhibition assay, KCl induced; type: cell-based
Description: (§1) Calcium Channel (Mobilization) Inhibition Assay
(§2) Polymorphonuclear leukocytes (PMNa), gastric glands, GH3 cells, A431 cells, spleen cells, human keratinocytes corneal cells, etc. were loaded with the Ca^2+ sensitive fluorescent dye, Fura-2. The appropriate cell type was chosen and the potency and efficacy of the anti-inflammatory furanones on calcium mobilization, calcium channel inhibition quantitated. The methods used for A431 cells listed below are representative of those used for other cells.
(§3) A431 cells were detached using a 5-10 min trypsin-EDTA treatment whereas GH3 cells were treated 2 to 5 min with a 1% pancreatin solution. Cells were immediately washed twice in a 20 mM HEPES buffer (pH 7.4) containing 120 mM NaCl, 6 mM KCl, 1 mM MgSO4, 1 mg/ml glucose and 1 mg/ml pyruvate and 1.4 mM calcium (medium A). Approximately 5×10^6 cells were suspended in medium A and incubated with 4 μM fura-2-AM for 15 min at 37° C.
(§4) After washing the fura-2 loaded cells, the uptake of dye was checked using fluorescence micioscopy and found to be evenly distributed in the cytosol of all cells. Fluorescence was continuously recorded with a Perkin-Elmer LS-5 spectrofluorometer. The excitation wavelength was set at 340 nm and emission wavelength set at 500 nm. The cell suspension was continually stirred, maintained at 37° C. and equilibrated for approximately 5 min before addition of various agents. [Ca^2+ ]i was calculated using the following formula: [formula]
(§5) All fluorescence values were measured relative to a EGTA-quenched signal determined as follows: F was the relative fluorescence measurement of the sample. Fmax was determined by lysing the cells with digitonin (100 μg/ml) in DMSO. After Fmax was determined the pH was adjusted to 8, with NaOH and Ca^2+ chelated with 3 mM EGTA to totally quench the fura-2 signal and obtain Fmin.
(§6) When quin-2 was used, cells were Incubated with 10 μM quin-2 at 37° C. for 1 hr, washed and then used.

[3] = molecular target: bee venom phospholipase A2 (Apis mellifera, UniProt P00630); assay: biochemical; settings: read-out: IC50 PLA2
[4] = test system: Ca2+ channel mobilization (TRH induced); assay: Calcium channel (mobilization) inhibition assay, TRH induced; type: cell-based; settings: for IC50: TRH induced calcium mobilization
Description: as §1, §2, §3
as §4, with “Fluorescence” for “After washing the fura-2 loaded cells, the uptake of dye was checked using fluorescence micioscopy and found to be evenly distributed in the cytosol of all cells. Fluorescence”
as §5, §6

bee venom phospholipase A2, sequence (P00630 34-167 limits assumed): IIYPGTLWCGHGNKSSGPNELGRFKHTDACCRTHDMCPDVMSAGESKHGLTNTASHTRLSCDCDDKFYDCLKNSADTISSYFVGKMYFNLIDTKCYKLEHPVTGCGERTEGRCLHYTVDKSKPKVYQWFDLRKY

**Q.** Which IC50 [1] does the source give for `CCCCCCCCCCCCCC1=CC(=O)OC1` [Compound 1, 4-tridecyl-2(5H)-furanone] here?
**A.** Its IC50 is over 100000 nM.

**Q.** What about the IC50 [2] of the same compound?
**A.** The IC50 was 1500 nM.

**Q.** What about the IC50 [3] of the same compound?
**A.** The IC50 was over 3300 nM.

**Q.** And the IC50 [4]?
**A.** Its IC50 is 2600 nM.

**Q.** What about the “Selectivity between calcium channel inhibition and phospholipase inhibition” value ([4]; conclusion from Table 1 (Ca2+ TRH/KCl vs PLA2, PLC)) of the same compound?
**A.** The value was “selective calcium channel inhibitor”.

**Q.** What does the source list for `CCCCCCCCCCCCCC1=CC(=O)OC1O` (stereo not drawn) [Compound 2, 4-tridecyl-5-hydroxy-2(5H)-furanone]?
**A.** IC50 [1]: > 100000 nM; IC50 [2]: 3000 nM; IC50 [3]: 90 nM; IC50 [4]: 3000 nM

**Q.** How did the IC50 [1] turn out when `CC1=C(CC/C(C)=C/CCC2=CCC(C3=CC(=O)OC3O)OC2O)C(C)(C)CCC1` (stereo not drawn) [manoalide, reference compound] was run?
**A.** Its IC50 is 3000 nM.

**Q.** What about the IC50 [2] of the same compound?
**A.** The IC50 was 800 nM.

**Q.** What about the IC50 [4] of the same compound?
**A.** Its IC50 is 600 nM.
